# Assay results as given in ChEMBL document CHEMBL1142638, “Thalicosides A1-A3, minor cycloartane bisdesmosides from Thalictrum minus” (2000).
# What was measured:
# Candida albicans = experiment: Antifungal activity against Candida albicans ATCC 90028 at 1 mg/mL after 24 hrs by spectrophotometry; assay type: functional
# Staphylococcus aureus = experiment: Antibacterial activity against Staphylococcus aureus ATCC 6538P at 1 mg/mL after 24 hrs by spectrophotometry; assay type: functional
smiles,measurement,setting,value
CC(C)=CC[C@H](O)[C@@H](C)[C@H]1[C@@H](O)C[C@@]2(C)[C@@H]3CC[C@H]4[C@](C)(CO[C@@H]5O[C@H](CO)[C@@H](O)[C@H](O)[C@H]5O)[C@@H](O[C@@H]5OC[C@H](O)[C@H](O)[C@H]5O)CC[C@@]45C[C@@]35CC[C@]12C [THALICOSIDE A2],Activity,Candida albicans,78.7%
same,Activity,Staphylococcus aureus,45.7%
